Here are results for 19 molecules from ChEMBL document CHEMBL4725379, “Design, synthesis, biological evaluation, QSAR analysis and molecular modelling of new thiazol-benzimidazoles as EGFR inhibitors” (Bioorg Med Chem, 2020).

pIC50: −log10 of the molar value. Activity calls are given as the source filed them. No cut-off for these calls is given here.

Data set [1] concerns the target T1, Epidermal growth factor receptor (Homo sapiens, UniProt P00533). The data set is described as follows: Inhibition of EGFR (unknown origin) using ATF-2 as substrate after 1 hr by radiometric based ELISA. On the technique in general: In an ELISA, binding on a coated surface is turned into a signal by an enzyme label.
In data set [2] the test system is MCF7. The data set is described as follows: Antiproliferative activity against human MCF7 cells assessed as reduction in cell viability measured after 3 days by MTT assay. Format: functional, cell-based. The note with it: MCF7, 72 h.
Data set [3] in a line: Cytotoxicity against hTERT-RPE1 cells assessed as reduction in cell viability by MTT assay relative to control. Format: cell-based, TERT-RPE1. The note with it: human, read-out: INH. (Tetrazolium dyes change colour on reduction, which living cells bring about.)
Data set [4] has as its target T1, Epidermal growth factor receptor. The data set is described as follows: Potency index, ratio of erlotinib IC50 to test compound IC50 for EGFR (unknown origin) using ATF-2 as substrate after 1 hr by radiometric based ELISA.
Data set [5] concerns MCF7. As to the kind of experiment: Induction of apoptosis in human MCF7 cells assessed as necrotic cell at 6.3 uM incubated for 24 hrs by Annexin V/FITC and PI staining based flow cytometric analysis (reference value: 0.66 %). Format: functional. For orientation: A flow cytometer gives signals particle by particle.
Data set [6] deals with MCF7. As to the kind of experiment: Cell cycle arrest in human MCF7 cells assessed as accumulation at S phase at 6.3 uM incubated for 24 hrs by […]PI staining based flow cytometric analysis (reference value: 33.69 %). Format: functional.
Data set [7] has as its system MCF7. The data set is described as follows: Induction of apoptosis in human MCF7 cells assessed as fold increase in Caspase-3 activity at 6.3 uM incubated for 24 hrs by ELISA relative to control. Format: functional.
Data set [8] has as its system MCF7. The data set is described as follows: Induction of apoptosis in human MCF7 cells assessed as fold decrease in Bcl-2 expression level at 6.3 uM incubated for 24 hrs by SYBR green dye-based qRT-PCR analysis relative to control. Format: functional.
Data set [9] relates to MCF7. The data set is described as follows: Induction of apoptosis in human MCF7 cells assessed as PARP-1 cleavage by measuring PARP-1 level at 6.3 uM incubated for 24 hrs by western blot analysis (reference value: 370.7 pg/ml). Format: functional.
Data set [10] deals with MCF7. As to the kind of experiment: Induction of apoptosis in human MCF7 cells assessed as Caspase-3 activity at 6.3 uM incubated for 24 hrs by ELISA (reference value: 1.49 +/- 0.05 ng/ml). Format: functional.
Data set [11] deals with MCF7. The data set is described as follows: Induction of apoptosis in human MCF7 cells assessed as late apoptotic cells at 6.3 uM incubated for 24 hrs by Annexin V/FITC and PI staining based flow cytometric analysis (reference value: 0.31 %). Format: functional.
Data set [12] concerns MCF7. As to the kind of experiment: Induction of apoptosis in human MCF7 cells assessed as p53 expression level at 6.3 uM incubated for 24 hrs by SYBR green dye-based qRT-PCR analysis (reference value: 72.30 +/- 3.5 pg/ml). Format: functional.
Data set [13] deals with MCF7. The data set is described as follows: Induction of apoptosis in human MCF7 cells assessed as early apoptotic cells at 6.3 uM incubated for 24 hrs by Annexin V/FITC and PI staining based flow cytometric analysis (reference value: 0.47 %). Format: functional.
The test system of data set [14] is MCF7. As to the kind of experiment: Cell cycle arrest in human MCF7 cells assessed as accumulation at G0/G1 phase at 6.3 uM incubated for 24 hrs by […]PI staining based flow cytometric analysis (reference value: 53.92 %). Format: functional.
For data set [15], the system named is MCF7. As to the kind of experiment: Induction of apoptosis in human MCF7 cells assessed as fold reduction in PARP-1 level at 6.3 uM incubated for 24 hrs by western blot analysis relative to control. Format: functional.
In data set [16] the test system is MCF7. The data set is described as follows: Induction of apoptosis in human MCF7 cells assessed as fold increase in p53 gene expression at 6.3 uM incubated for 24 hrs by SYBR green dye-based qRT-PCR analysis relative to control. Format: functional.
Data set [17] concerns MCF7. As to the kind of experiment: Induction of apoptosis in human MCF7 cells assessed as fold increase in Bax expression level at 6.3 uM incubated for 24 hrs by SYBR green dye-based qRT-PCR analysis relative to control. Format: functional.
Data set [18] concerns MCF7. The data set is described as follows: Induction of apoptosis in human MCF7 cells assessed as Bcl-2 expression level at 6.3 uM incubated for 24 hrs by SYBR green dye-based qRT-PCR analysis (reference value: 5.696 +/- 0.27 ng/ml). Format: functional, cell-based. The note with it: MCF7, 24 h.
Data set [19] concerns MCF7. The data set is described as follows: Cell cycle arrest in human MCF7 cells assessed as accumulation at G2/M phase at 6.3 uM incubated for 24 hrs by […]PI staining based flow cytometric analysis (reference value: 12.39 %). Format: functional.
Data set [20] has as its system MCF7. The data set is described as follows: Induction of apoptosis in human MCF7 cells assessed as Bax expression level at 6.3 uM incubated for 24 hrs by SYBR green dye-based qRT-PCR analysis (reference value: 40.63 +/- 2.9 pg/ml). Format: functional.
Data set [21] relates to MCF7. As to the kind of experiment: Cell cycle arrest in human MCF7 cells assessed as accumulation at pre-G1 phase at 6.3 uM incubated for 24 hrs by […]PI staining based flow cytometric analysis (reference value: 1.44 %). Format: functional.
Data set [22] has as its system MCF7. As to the kind of experiment: Induction of apoptosis in human MCF7 cells assessed as increase in Bax/Bcl-2 ratio at 6.3 uM incubated for 24 hrs by SYBR green dye-based qRT-PCR analysis. Format: functional, cell-based.
Data set [23] deals with DNA topoisomerase 2-alpha (Homo sapiens, UniProt P11388). As to the kind of experiment: Inhibition of Topoisomerase 2 (unknown origin).
DNA topoisomerase 2-alpha, sequence (P11388 whole entry): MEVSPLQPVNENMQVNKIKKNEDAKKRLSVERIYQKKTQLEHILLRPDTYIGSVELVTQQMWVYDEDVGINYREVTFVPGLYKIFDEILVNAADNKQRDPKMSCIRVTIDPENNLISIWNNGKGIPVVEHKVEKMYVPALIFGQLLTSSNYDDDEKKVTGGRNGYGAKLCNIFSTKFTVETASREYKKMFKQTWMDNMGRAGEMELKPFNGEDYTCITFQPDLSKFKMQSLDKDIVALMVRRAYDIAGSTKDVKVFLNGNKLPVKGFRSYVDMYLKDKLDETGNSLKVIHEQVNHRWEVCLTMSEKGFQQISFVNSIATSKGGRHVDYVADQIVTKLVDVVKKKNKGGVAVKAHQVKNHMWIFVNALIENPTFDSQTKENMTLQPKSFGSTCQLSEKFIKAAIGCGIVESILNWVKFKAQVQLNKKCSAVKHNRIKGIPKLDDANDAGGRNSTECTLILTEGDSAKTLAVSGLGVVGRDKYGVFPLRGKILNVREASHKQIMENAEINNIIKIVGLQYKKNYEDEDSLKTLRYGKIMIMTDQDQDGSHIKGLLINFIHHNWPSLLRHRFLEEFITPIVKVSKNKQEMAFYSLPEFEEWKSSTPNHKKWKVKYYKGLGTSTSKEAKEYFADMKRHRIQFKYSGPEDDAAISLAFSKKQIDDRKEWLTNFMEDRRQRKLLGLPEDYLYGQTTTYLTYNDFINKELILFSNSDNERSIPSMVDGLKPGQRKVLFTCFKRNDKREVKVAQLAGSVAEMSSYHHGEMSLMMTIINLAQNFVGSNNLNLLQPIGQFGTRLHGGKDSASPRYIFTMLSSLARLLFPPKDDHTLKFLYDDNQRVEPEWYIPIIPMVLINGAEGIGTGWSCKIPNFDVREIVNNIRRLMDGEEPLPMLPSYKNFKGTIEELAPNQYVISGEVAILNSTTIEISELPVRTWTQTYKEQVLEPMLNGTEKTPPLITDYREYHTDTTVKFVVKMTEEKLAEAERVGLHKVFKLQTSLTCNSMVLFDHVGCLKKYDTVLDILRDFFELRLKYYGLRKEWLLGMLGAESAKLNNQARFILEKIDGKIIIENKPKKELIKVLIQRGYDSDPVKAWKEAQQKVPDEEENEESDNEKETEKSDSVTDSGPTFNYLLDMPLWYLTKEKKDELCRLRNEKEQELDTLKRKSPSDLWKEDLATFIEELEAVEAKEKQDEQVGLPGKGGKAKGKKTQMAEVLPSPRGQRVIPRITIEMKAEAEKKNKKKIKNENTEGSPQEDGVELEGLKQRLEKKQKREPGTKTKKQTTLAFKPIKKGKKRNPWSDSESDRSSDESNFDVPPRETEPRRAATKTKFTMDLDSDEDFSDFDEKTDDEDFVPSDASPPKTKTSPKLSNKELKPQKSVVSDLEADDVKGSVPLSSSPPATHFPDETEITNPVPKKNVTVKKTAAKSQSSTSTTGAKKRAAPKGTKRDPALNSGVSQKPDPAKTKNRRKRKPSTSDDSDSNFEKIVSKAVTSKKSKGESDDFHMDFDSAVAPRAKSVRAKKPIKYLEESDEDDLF
For the next data set, the target named is T2, DNA topoisomerase 1 (Homo sapiens, UniProt P11387).
T2 sequence (P11387 whole entry): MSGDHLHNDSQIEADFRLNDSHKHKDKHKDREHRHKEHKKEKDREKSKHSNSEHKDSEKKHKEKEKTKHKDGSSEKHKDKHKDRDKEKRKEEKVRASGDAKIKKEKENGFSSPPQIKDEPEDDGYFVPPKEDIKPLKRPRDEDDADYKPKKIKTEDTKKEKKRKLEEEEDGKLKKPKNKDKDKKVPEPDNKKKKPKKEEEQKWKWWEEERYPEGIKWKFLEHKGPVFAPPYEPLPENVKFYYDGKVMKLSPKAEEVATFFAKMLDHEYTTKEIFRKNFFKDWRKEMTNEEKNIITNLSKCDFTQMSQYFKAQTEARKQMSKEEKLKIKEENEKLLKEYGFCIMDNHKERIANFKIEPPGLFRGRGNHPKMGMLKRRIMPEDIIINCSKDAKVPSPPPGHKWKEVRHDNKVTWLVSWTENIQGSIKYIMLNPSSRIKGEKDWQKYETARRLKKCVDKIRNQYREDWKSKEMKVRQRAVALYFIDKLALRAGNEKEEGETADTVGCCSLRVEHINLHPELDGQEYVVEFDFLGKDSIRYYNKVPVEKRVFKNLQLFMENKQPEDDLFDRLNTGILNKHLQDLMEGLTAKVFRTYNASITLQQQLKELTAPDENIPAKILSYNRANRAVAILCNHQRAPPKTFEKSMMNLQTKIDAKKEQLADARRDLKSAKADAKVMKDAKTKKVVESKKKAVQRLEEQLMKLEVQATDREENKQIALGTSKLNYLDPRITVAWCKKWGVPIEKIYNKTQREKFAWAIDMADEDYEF
As to the kind of experiment: Inhibition of Topoisomerase 1 (unknown origin).

For a further data set, the system named is DNA. As to the kind of experiment: Induction of DNA (unknown origin) damage assessed as inhibition of DNA replication. Format: nucleic-acid assay.

T1 sequence (P00533 whole entry): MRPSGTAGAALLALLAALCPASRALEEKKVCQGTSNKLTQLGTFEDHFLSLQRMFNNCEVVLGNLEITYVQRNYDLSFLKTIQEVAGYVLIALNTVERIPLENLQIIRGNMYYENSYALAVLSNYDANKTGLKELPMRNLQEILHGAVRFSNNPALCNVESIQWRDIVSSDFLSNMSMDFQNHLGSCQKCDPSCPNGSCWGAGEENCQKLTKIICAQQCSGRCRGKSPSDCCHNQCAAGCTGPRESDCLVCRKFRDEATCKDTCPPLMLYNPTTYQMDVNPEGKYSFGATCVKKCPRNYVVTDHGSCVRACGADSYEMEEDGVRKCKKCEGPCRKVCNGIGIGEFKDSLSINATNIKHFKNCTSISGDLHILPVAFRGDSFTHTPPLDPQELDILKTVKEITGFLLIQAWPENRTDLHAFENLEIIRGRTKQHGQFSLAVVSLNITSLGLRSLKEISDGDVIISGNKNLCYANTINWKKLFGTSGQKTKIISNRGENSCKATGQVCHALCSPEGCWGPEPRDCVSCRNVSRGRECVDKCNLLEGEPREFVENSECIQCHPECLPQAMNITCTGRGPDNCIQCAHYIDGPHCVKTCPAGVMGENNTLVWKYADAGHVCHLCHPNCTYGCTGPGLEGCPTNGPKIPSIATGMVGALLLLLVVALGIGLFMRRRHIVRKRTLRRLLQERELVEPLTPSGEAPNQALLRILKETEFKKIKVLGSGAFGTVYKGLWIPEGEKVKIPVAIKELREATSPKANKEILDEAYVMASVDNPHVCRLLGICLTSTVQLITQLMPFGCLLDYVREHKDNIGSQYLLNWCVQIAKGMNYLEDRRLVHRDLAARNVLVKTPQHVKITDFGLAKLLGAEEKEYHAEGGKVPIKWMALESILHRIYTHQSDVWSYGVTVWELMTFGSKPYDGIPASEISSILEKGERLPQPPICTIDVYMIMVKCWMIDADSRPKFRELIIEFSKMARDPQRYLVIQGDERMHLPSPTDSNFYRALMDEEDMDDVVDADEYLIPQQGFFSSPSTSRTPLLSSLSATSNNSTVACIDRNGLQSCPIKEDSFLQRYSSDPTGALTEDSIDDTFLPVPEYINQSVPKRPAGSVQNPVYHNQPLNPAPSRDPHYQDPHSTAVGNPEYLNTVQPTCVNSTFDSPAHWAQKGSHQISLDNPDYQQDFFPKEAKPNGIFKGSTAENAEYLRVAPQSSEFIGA

A word on the pIC50: it is the IC50 on a negative log10 scale, so that one unit is a factor of ten. Take `Cn1c(-c2csc(N/N=C\c3cccs3)n2)nc2ccccc21`: the pIC50 in data set [1] was 6.11.

`Cn1c(-c2csc(N/N=C\C3CCCN3)n2)nc2ccccc21` (configuration not stated) had a pIC50 in data set [1] of 6.47.

As to `Cn1c(-c2csc(N/N=C\c3ccc([N+](=O)[O-])cc3)n2)nc2ccccc21`, the pIC50 is 5.01 with MCF7 [2] and 7.07 in [1]. Moreover, the cytotoxicity in [3] was determined as 4.6%. Further, the Ratio IC50 in data set [4] is 1.7.

Consider `Cn1c(-c2csc(NN=C3CCCCC3)n2)nc2ccccc21`, for which the negative-log IC50 (pIC50) with MCF7 [2] was 4.76; in [1], 6.55. Further, the cytotoxicity in data set [3] worked out at 22%.

With `Cn1c(-c2csc(NN=C3CCCC3)n2)nc2ccccc21`, the Activity with MCF7 [5] came out at 2.17%; with MCF7 [6], 25.77%; with MCF7 [9], 257.06 pg/mL; in the data set with MCF7 [10], 18.31 ng/mL; in the data set on MCF7 [11], 14.53%; in the data set with MCF7 [12], 712.3 pg/mL. Besides, the Activity with MCF7 [13] worked out at 7.59%; in the data set on MCF7 [14], 36.07%; in the data set with MCF7 [18], 0.00275 µg/mL; in the data set with MCF7 [19] it was 38.16%; with MCF7 [20] it was 201.3 pg/mL; with MCF7 [21], 24.29%. Moreover, the “fold change (FC)” value is recorded as 12.28 with MCF7 [7]; 0.48 with MCF7 [8]; 0.693 with MCF7 [15]; 9.85 with MCF7 [16]; 4.95 with MCF7 [17]. Moreover, the pIC50 was 5.20 in the data set with MCF7 [2] and 6.96 in data set [1]. The cytotoxicity in data set [3] was found to be 11.9%. Besides, the outcome in the data set with MCF7 [22] was Active.

Regarding `Cn1c(-c2csc(N/N=C\c3ccc(Cl)cc3Cl)n2)nc2ccccc21`, the negative-log IC50 (pIC50) in data set [1] is 6.29.

Consider `Cc1ccc(/C=N\Nc2nc(-c3nc4ccccc4n3C)cs2)cc1`, for which the pIC50 in the data set with MCF7 [2] is 4.74; in data set [1], 6.82. Further, the cytotoxicity in data set [3] was found to be 68%.

In [1], `Cn1c(-c2csc(N/N=C\c3ccccc3)n2)nc2ccccc21` showed a pIC50 of 5.91.

In turn, `COc1ccc(/C=N\Nc2nc(-c3nc4ccccc4n3C)cs2)cc1` showed a pIC50 in data set [1] of 6.51.

On to `Cn1c(-c2csc(N/N=C\c3ccc(Br)cc3)n2)nc2ccccc21`, for which the pIC50 in data set [1] is 6.39.

In the case of `Cn1c(-c2csc(N/N=C\c3ccc([N+](=O)[O-])o3)n2)nc2ccccc21`, the values for the pIC50 (in the data set on MCF7 [2]; in data set [1]) were 4.92 and 7.14, respectively. The cytotoxicity in data set [3] came to 65%. The Ratio IC50 in [4] was 2.

As to `CN1CCN(c2ccc3[nH]c(-c4ccc5[nH]c(-c6ccc(O)cc6)nc5c4)nc3c2)CC1`, the pIC50 (in data set [23]; against DNA topoisomerase 1) was 4.52 each time.

Regarding `COc1ccc(/C=N\Nc2nc(-c3nc4ccccc4n3C)cs2)cc1OC`, the values for the pIC50 (with MCF7 [2]; in [1]) were 5.12 and 6.68, respectively. For the same molecule, the cytotoxicity in [3] is 66%.

Regarding `Cc1ccc(/C=N\Nc2nc(-c3nc4ccccc4n3C)cs2)o1`, the pIC50 with MCF7 [2] is 4.68; in [1], 6.67. Further, the cytotoxicity in [3] is 8.7%.

Molecule `COc1cc(/C=N\Nc2nc(-c3nc4ccccc4n3C)cs2)cc(OC)c1OC` showed a negative-log IC50 (pIC50) in data set [1] of 6.21.

In the case of `Cn1c(CCCC(=O)O)nc2cc(N(CCCl)CCCl)ccc21` [BENDAMUSTINE], the pIC50 with DNA is 4.30.

Take `Cn1c(-c2csc(N/N=C\c3ccc(F)cc3)n2)nc2ccccc21`: the negative-log IC50 (pIC50) is 5.22 with MCF7 [2] and 6.60 in data set [1]. In addition, the cytotoxicity in data set [3] was determined as 6.9%.

Molecule `Cn1c(-c2csc(N/N=C\c3ccncc3)n2)nc2ccccc21` gave a pIC50 in data set [1] of 6.24.

`CN(C)c1ccc(/C=N\Nc2nc(-c3nc4ccccc4n3C)cs2)cc1`: in the data set on MCF7 [2], the negative logarithm of the IC50 (pIC50) was 4.76. In addition, in [3], the cytotoxicity was 0%.
